Measured values reported in patent US20220299500A1, “NDUFS2 SUBUNIT KNOCKOUT HUMAN CELL LINE” (priority 2019, published 2022).
“Also recorded” adds a separate entry of the source.

Key:
Type in all cases: cell-based, human
[1] = tested on: mutant HEK293ΔNDUFS2; experiment: Cell growth of mutant cultures treated for 10 days (cell counts)
Description: (§1) Restoring (rescuing) the impaired growth and respiration the mutant. Effectiveness of the potential Complex I therapeutic idebenone in restoring the ATP synthesis defects of the mutant HEK293ΔNDUFS2 was evaluated. In this procedure, mutant cells were cultured in media supplemented with 1 μM of idebenone in 96-well plates at 2,000 cells/well. Fresh media (with or without the therapeutic) were added on days 0, 3 and 5. Cellular ATP pool was assessed on day 6 of incubation by Mitochondrial ToxGlo Assay. Mutant cells were also cultured in 6-well plates at 2000 cells/well in medium supplemented 0.5, 1, 5, or 10 μM of idebenone. Fresh media containing the drug was added on days 3, 6 and 9, and the cell counts in wells of triplicates was determined following 10 days incubation. Efficacy of idebenone in improving respiration of permeabilized mutant cells was measured by O2k respirometry as described above with the following modification: subsequent to glutamate+malate injection, idebenone was injected into chambers at 1 μM final concentration. The control groups received DMSO.

[2] = tested on: permeabilized mutant HEK293ΔNDUFS2 cells; experiment: Oxygen consumption of permeabilized mutant cells, Oroboros O2k respirometry
Description: Mitochondrial respiration measurements with Oroboros O2K respirometry. Oxygen consumption rate (OCR) of strains was determined using protocols described elsewhere (Alleman R J, et al. Am J Physiol Heart Circ Physiol 2016, 310(10):H1360-1370; Goswami I, et al. Biophys J 2018, 114(12):2951-2964). Briefly, the parent type HEK293 and the mutant HEK293ΔNDUFS2 grown for eight days in 225 cm^2 flasks for 75-80% confluence were harvested by treatment with trypsin-EDTA, centrifuged at 300×g for 3 min, and resuspended in assay buffer Z (105 mM 2-(N-Morpholino)ethanesulfonic acid potassium salt, 30 mM KCl, 10 mM KH2PO4, 5 mM MgCl2-6H2O, 0.5 mg/mL bovine serum albumin, 20 mM creatine, 1 mM EGTA [pH 7.1] in dH2O). Approximately one million cells in 2 ml volumes were then introduced into the Oroboros O2K respiration chamber, which is equipped with calibrated oxygen measuring polarographic sensors. The oxygen signals were allowed to stabilize before closing the chamber to the outside air while chamber temperature was maintained at 37° C. Subsequently, the OCR was recorded after injection with none (basal), 2 mM of malate plus 10 mM glutamate (G/M), 5 mM of adenosine diphosphate (ADP), and 1.0 μM protonophore Carbonyl cyanide 4-(trifluoromethoxy)phenylhydrazone (FCCP).
Cell growth and metabolism. To measure the cell proliferation of parent HEK293 and mutant HEK293ΔNDUFS2, aliquots of 50,000 cells were introduced into 75 cm^2 flasks each carrying 25 ml growth media and cell numbers were quantified in triplicates after 4 and 6 days of incubation. Extracellular Acidification Rate (ECAR) was determined with an Agilent Seahorse XFe96 analyzer (Ryall J G. Methods Mol Biol 2017, 1556:245-253). Cellular ATP pool and cell-membrane porousness were measured using Mitochondrial ToxGlo Assay (Promega Corporation, Madison, Wis.). Oxygen consumption of saponin-permeabilized cells (Hahn D, et al. Am J Physiol Cell Physiol 2019, 317(4):C665-C673) was measured by Oroboros O2k respirometry (Alleman R J, et al. Am J Physiol Heart Circ Physiol 2016, 310(10):H1360-1370; Goswami I, et al. Biophys J 2018, 114(12):2951-2964).
as §1

[3] = tested on: mutant HEK293ΔNDUFS2; experiment: ATP synthesis of mutant cells grown with therapeutics, Mitochondrial ToxGlo Assay; conditions: for amount of ATP compared to mutant cells treated with DMSO: day 6, luminescence normalized to DMSO control; for restoration of ATP synthesis defects of the mutant: concentration not given
Description: (§2) ATP synthesis and cell-membrane integrity of strains. Potential mitochondrial dysfunction of strains was assessed by using the Mitochondrial ToxGlo Assay (Promega Corporation, Madison, Wis.), according to the procedure described by the manufacturer. This assay is based on the measurements of biomarkers associated with changes in cell membrane integrity and cellular ATP levels. Briefly, the parent and mutant cells grown in flasks were harvested by trypsinization and resuspended in fresh medium. Approximately 10,000 cells/well were added to a 96-well plate and incubated overnight. A working stock of antimycin A, which is a mitochondrial toxin (complex III inhibitor) was prepared at a concentration of 150 μM in a glucose-free DMEM medium (Sigma-Aldrich) supplemented with 10 mM galactose (Sigma-Aldrich). Serial dilutions of the mitochondrial toxin were prepared in a separate 96-well plate (in galactose containing medium). Overnight grown cells were washed with glucose-free galactose containing medium, and fresh (galactose containing medium) was added into wells at 50 μl/well. Fifty μl volumes of the serial dilutions of toxin were transferred from the stock plate to the wells in cell culture plate. The wells carrying the vehicle controls received the medium with no toxin. The plate was incubated at 37° C. for 90 min. Twenty μl volumes of 5× Cytotoxicity Reagent were added to each well, the plate was incubated at 37° C. for further 30 min, and the fluorescence was measured at 475 nmEX/500-550 nmEM, by using a Glomax Discover plate reader (Promega Corporation). The assay plate was equilibrated to room temperature, 100 μl ATP Detection Reagent was added to each well, and luminescence was measured by using the same plate reader.
Restoring (rescuing) the altered/lost phenotypes of the mutant with the use of potential complex I therapeutics. Effectiveness of the potential complex I therapeutics in restoring the metabolic defects of the mutant HEK293ΔNDUFS2 was evaluated. For this purpose, the mutant cells were treated with the therapeutic idebenone or its analog SBT-220 and change in ATP synthesis was examined. In this procedure, the mutant cells were suspended in culture media supplemented with 0, 1, or 10 μM of idebenone, conjugate SBT-220, conjugate SBT-222, or elamipretide, and plated in 96 well plates at 2,000 cells/well. Cells suspended in DMSO served as controls. Fresh media (with or without therapeutics) were added on days 0, 3 and 5. Cellular ATP synthesis was assessed on day 6 of incubation by using the Mitochondrial ToxGlo Assay, as described above. The responses of ATP synthesis in the treatment groups were normalized to that of the control group.
as §1

[4] = tested on: mutant HEK293ΔNDUFS2; experiment: ATP synthesis in presence of respiratory inhibitor, Mitochondrial ToxGlo Assay; conditions: Antimycin A added to reaction media
Description: as §2

[5] = tested on: parent HEK293; experiment: as above; conditions: Antimycin A added to reaction media, 90 min
Description: as §2

[6] = tested on: mutant HEK293ΔNDUFS2; experiment: Cell-membrane porousness in presence of respiratory inhibitor, Mitochondrial ToxGlo Assay
Description: as §2

[7] = tested on: parent HEK293; experiment: as above; conditions: Antimycin A added to reaction medium
Description: as §2

[8] = 1 μM final concentration, vs DMSO

Molecule	more cells recovered compared to the DMSO control ([1]; 0.5 μM, 10 days)	cell proliferation ([1]; 0.5 μM, long-term treatment)	growth of the mutant ([1]; 1 μM, 10 days)	growth of the mutant ([1]; 5 μM, 10 days)	effect on mutant cells in growth test ([1]; 10 μM, 10 days)	Complex I respiration ([2]; 1 μM final concentration injected after glutamate+malate, vs DMSO)	Complex II respiration [2, 8]	OXPHOS capacity [2, 8]	maximal respiration [2, 8]	oxygen consumption all along the ETC ([2]; idebenone treatment vs DMSO)	amount of ATP compared to mutant cells treated with DMSO ([3]; 1 μM)	restoration of ATP synthesis / ATP pool of the mutant ([3]; 1 μM, long-term treatment (six days))	improvement of ATP synthesis defects of the mutant ([3]; 10 μM)	restoration of ATP synthesis defects of the mutant [3]	decline of ATP synthesis in the mutant compared to the parent [4]	ATP synthesis ability ([4]; 90 min)	ATP synthesis ability [5]	membrane porousness ([6]; Antimycin A added to reaction medium)	cell membrane porousness of the mutant relative to the parent ([6]; as a result of antimycin A treatment)	membrane porousness [7]
COC1=C(OC)C(=O)C(CCCCCCCCCCO)=C(C)C1=O [idebenone]	32.1%	enhanced cell proliferation	did not improve growth	did not improve growth	caused cell death	improved significantly	improved significantly	improved significantly	improved significantly	improved oxygen consumption all along the ETC	2.4 folds	restored the ATP synthesis of the mutant to some extent; also recorded: significantly greater amount of ATP; also recorded: improved ATP pool	failed to improve	partially restored						
Antimycin A															up to 2.2 folds	declined drastically	declined drastically	more porous	up to 4.5 folds	more porous
elamipretide											2.1 folds			partially restored						
